Measurements as given in BindingDB's records for doi:10.1016/j.bmc.2005.09.055 (Uk Centre For Cancer Therapeutics, 2006).
pIC50: −log10 of the molar value.

Columns and labels:
[1] = biological target: RAC-beta serine/threonine-protein kinase (Homo sapiens, UniProt P31751); assay: PKB In Vitro Enzyme Assay
[2] = biological target: cAMP-dependent protein kinase catalytic subunit alpha (Bos taurus, UniProt P00517); assay: PKA In Vitro Enzyme Assay

Sequence of RAC-beta serine/threonine-protein kinase (P31751 whole entry): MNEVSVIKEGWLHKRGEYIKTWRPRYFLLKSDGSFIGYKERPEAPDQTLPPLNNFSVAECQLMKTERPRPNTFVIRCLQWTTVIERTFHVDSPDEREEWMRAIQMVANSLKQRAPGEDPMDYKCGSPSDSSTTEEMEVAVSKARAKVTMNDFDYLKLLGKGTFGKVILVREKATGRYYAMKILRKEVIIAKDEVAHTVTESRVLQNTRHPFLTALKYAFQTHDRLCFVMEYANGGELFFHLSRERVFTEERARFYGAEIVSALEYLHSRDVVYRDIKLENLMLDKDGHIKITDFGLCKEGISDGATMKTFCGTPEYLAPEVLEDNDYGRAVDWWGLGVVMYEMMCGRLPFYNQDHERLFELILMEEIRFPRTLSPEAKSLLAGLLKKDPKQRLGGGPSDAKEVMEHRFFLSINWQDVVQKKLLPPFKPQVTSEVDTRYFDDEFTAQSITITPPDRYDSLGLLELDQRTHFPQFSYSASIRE

pIC50 [1] | pIC50 ([1]; pH 7.2, 22 °C) | SMILES | other results
6.28 | – | O=c1[nH]ccc2c(S(=O)(=O)N[C@@H]3CN[C@H](COCc4ccc(Cl)cc4)C3)cccc12 [N-[(3S,5S)-5-{[(4-chlorophenyl)methoxy]methyl}pyrrolidin-3-yl]-1-hydroxyisoquinoline-5-sulfonamide] | pIC50 [2]: 5.89
5.47 | – | O=S(=O)(NC[C@@H]1C[C@H](OCc2ccccc2)CN1)c1cccc2cnccc12 [Isoquinoline-5-sulfonic acid (2S,4S)-(4-(benzyloxy)pyrrolidin-2-yl-methyl)amide] | –
4.24 | – | O=S(=O)(NCC1CCNCC1)c1cccc2cnccc12 [Isoquinoline-5-sulfonic acid (piperidin-4-ylmethyl)amide] | –
5.41 | – | O=S(=O)(NC1CCNC1)c1cccc2cnccc12 (stereo unspecified) [Isoquinoline-5-sulfonic acid pyrrolidin-3-ylamide] | –
– | 5.66 | COc1cccc(COCCNCCNS(=O)(=O)c2cccc3cnccc23)c1 [Isoquinoline-5-sulfonic acid (2-(2-(3-methoxybenzyloxy)ethylamino)ethyl)amide] | –
– | 5.18 | COc1ccccc1COCCNCCNS(=O)(=O)c1cccc2cnccc12 [N-[2-({2-[(2-methoxyphenyl)methoxy]ethyl}amino)ethyl]isoquinoline-5-sulfonamide] | –
– | 5.96 | Cc1cccc(COCCNCCNS(=O)(=O)c2cccc3cnccc23)c1 [N-[2-({2-[(3-methylphenyl)methoxy]ethyl}amino)ethyl]isoquinoline-5-sulfonamide] | –
– | 6.02 | O=S(=O)(NCCNCCOCc1ccccc1Cl)c1cccc2cnccc12 [N-[2-({2-[(2-chlorophenyl)methoxy]ethyl}amino)ethyl]isoquinoline-5-sulfonamide] | pIC50 ([2]; pH 7.2, 22 °C): 6.00
– | 6.43 | O=S(=O)(NCCNCCOCc1cccc(Cl)c1)c1cccc2cnccc12 [Isoquinoline-5-sulfonic acid (2-(2-(3-chlorobenzyloxy)ethylamino)ethyl)amide] | pIC50 ([2]; pH 7.2, 22 °C): 6.39
5.12 | – | CNCCNS(=O)(=O)c1cccc2cnccc12 [N-[2-(methylamino)ethyl]isoquinoline-5-sulfonamide] | –
– | 6.24 | Cc1ccccc1COCCNCCNS(=O)(=O)c1cccc2cnccc12 [N-[2-({2-[(2-methylphenyl)methoxy]ethyl}amino)ethyl]isoquinoline-5-sulfonamide] | –
6.32 | – | O=S(=O)(NC[C@@H]1C[C@H](OCc2ccc(Cl)cc2)CN1)c1cccc2cnccc12 [N-{[(2S,4S)-4-[(4-chlorophenyl)methoxy]pyrrolidin-2-yl]methyl}isoquinoline-5-sulfonamide] | pIC50 [2]: 6.77
5.18 | – | O=S(=O)(N[C@H]1CC[C@H](NCc2ccccc2)CC1)c1cccc2cnccc12 [N-[4-(benzylamino)cyclohexyl]isoquinoline-5-sulfonamide] | –
5.09 | – | N[C@H]1CC[C@H](NS(=O)(=O)c2cccc3cnccc23)CC1 [Isoquinoline-5-sulfonic acid trans-(4-aminocyclohexyl)amide] | pIC50 [2]: 5.24
5.77 | – | O=S(=O)(NC[C@@H]1C[C@@H](OCc2ccc(Cl)cc2)CN1)c1cccc2cnccc12 [Isoquinoline-5-sulfonic acid (2S,4R)-(4-(4-chlorobenzyloxy)pyrrolidin-2-yl-methyl)amide] | pIC50 [2]: 6.40
5.28 | – | O=S(=O)(N[C@H]1CN[C@H](COCc2ccc(Cl)cc2)C1)c1cccc2cnccc12 [N-[(3R,5S)-5-{[(4-chlorophenyl)methoxy]methyl}pyrrolidin-3-yl]isoquinoline-5-sulfonamide] | –
5.77 | – | O=S(=O)(NC[C@H]1CC[C@@H](COCc2ccc(Cl)cc2)N1)c1cccc2cnccc12 [Isoquinoline-5-sulfonic acid (2R*,5S*)-(5-(4-chlorobenzyloxymethyl)pyrrolidin-2-yl-methyl)amide] | –
– | 6.68 | O=S(=O)(NCCNCCOCc1ccc(Cl)c(Cl)c1)c1cccc2cnccc12 [Isoquinoline-5-sulfonic acid (2-(2-(3,4-dichlorobenzyloxy)ethylamino)ethyl)amide] | –
– | 5.93 | O=S(=O)(NCCNCCOCc1ccccc1)c1cccc2cnccc12 [N-(2-{[2-(benzyloxy)ethyl]amino}ethyl)isoquinoline-5-sulfonamide] | –
– | 5.82 | Cc1ccc(COCCNCCNS(=O)(=O)c2cccc3cnccc23)cc1 [Isoquinoline-5-sulfonic acid (2-(2-(4-methylbenzyloxy)ethylamino)ethyl)amide] | –
– | 5.06 | O=S(=O)(NC1CCNCC1)c1cccc2cnccc12 [N-(piperidin-4-yl)isoquinoline-5-sulfonamide] | pIC50 ([2]; pH 7.2, 22 °C): 5.41
– | 5.54 | COc1ccc(COCCNCCNS(=O)(=O)c2cccc3cnccc23)cc1 [N-[2-({2-[(4-methoxyphenyl)methoxy]ethyl}amino)ethyl]isoquinoline-5-sulfonamide] | –
– | 4.64 | O=S(=O)(c1cccc2cnccc12)N1CCNCC1 [Isoquinoline-5-sulfonic acid piperazin-1 ylamide] | –
6.11 | – | O=S(=O)(N[C@@H]1CN[C@H](COCc2ccc(Cl)cc2)C1)c1cccc2cnccc12 [N-[(3S,5S)-5-{[(4-chlorophenyl)methoxy]methyl}pyrrolidin-3-yl]isoquinoline-5-sulfonamide] | pIC50 [2]: 6.38
– | 5.32 | NCCCNS(=O)(=O)c1cccc2cnccc12 [N-(3-aminopropyl)isoquinoline-5-sulfonamide] | –
4.41 | – | O=S(=O)(NC[C@@H]1CCCN1)c1cccc2cnccc12 [N-[(2S)-pyrrolidin-2-ylmethyl]isoquinoline-5-sulfonamide] | –
5.59 | – | Cc1cncc2cccc(S(=O)(=O)N[C@@H]3CN[C@H](COCc4ccc(Cl)cc4)C3)c12 [N-[(3S,5S)-5-{[(4-chlorophenyl)methoxy]methyl}pyrrolidin-3-yl]-4-methylisoquinoline-5-sulfonamide] | pIC50 [2]: 6.49
